Experimental data: BigSolDB 2.1

C(=C\c1ccccc1)/CN1CCN(C(c2ccccc2)c2ccccc2)CC1
solubility (mole fraction)
Settings	288.5 K	293.5 K	298.4 K	303.3 K	308.3 K	313.2 K
in acetonitrile	0.000877	0.00105	0.00137	0.00158	0.00204	0.00273
in isopropanol	0.00064	0.000811	0.000994	0.00127	0.00165	0.00208
in n-butanol	0.00273	0.00351	0.00412	0.00499	0.00607	0.00804
in n-butyl acetate	0.0153	0.0197	0.0226	0.0272	0.0337	0.0425
